Data as given in PMC11725774 (Cancer Research Communications, 2025).
Read-outs that look alike come from different tables or passages of the source.

What was measured:
JAK1 = biological target: T1, JAK1 (Homo sapiens, UniProt P23458); assay: Broad kinase inhibition screen, recombinant kinase; format: biochemical; details: broad kinase inhibition screens
T1 construct: purchased Thermo Fisher Scientific or Reaction Biology, Inc. (screening service)
Text: (§1) Data from these screens are available on request.

JAK2 = biological target: T2, JAK2 (Homo sapiens, UniProt O60674); assay: Broad kinase inhibition screen, recombinant kinase; format: biochemical; details: broad kinase inhibition screens
T2 construct: purchased Thermo Fisher Scientific or Reaction Biology, Inc. (screening service)
Text: as §1

RSK-2 = biological target: T3, RSK-2 (Homo sapiens, UniProt P51812); assay: Broad kinase inhibition screen, recombinant kinase; format: biochemical; details: broad kinase inhibition screens
T3 construct: purchased Thermo Fisher Scientific or Reaction Biology, Inc. (screening service)
Text: as §1

SYK = biological target: T4, SYK (Homo sapiens, UniProt P43405); assay: Broad kinase inhibition screen, recombinant kinase; format: biochemical; details: broad kinase inhibition screens
T4 construct: purchased Thermo Fisher Scientific or Reaction Biology, Inc. (screening service)
Text: as §1

TAK1 = biological target: T5, TAK1 (Homo sapiens, UniProt O43318); assay: Broad kinase inhibition screen, recombinant kinase; format: biochemical; details: broad kinase inhibition screens
T5 construct: purchased Thermo Fisher Scientific or Reaction Biology, Inc. (screening service)
Text: as §1

Ba/F3 cells FLT3 D835Y = assay: Growth inhibition of Ba/F3 cells; format: cell-based, murine; details: Mus musculus
Experimental: (§2) MV-4-11 cells expressing NRAS^G12D were prepared by transduction with a lentiviral vector encoding the NRAS^G12D mutation. Assays using a panel of parental Ba/F3 into which an additional copy of either WT or a mutant form of FLT3 was introduced were performed at Kyinno Biotechnology Co., Ltd. All cell lines were short tandem repeat authenticated at ATCC or at DSMZ when originally obtained, and no further authentication was done after receipt of the cells in the laboratory.
(§3) Assays using Ba/F3 cells expressing WT and mutant forms of FLT3 were performed by Kyinno Biotechnology. The cells were cultured in the medium recommended by the source for each cell line. Growth inhibition assays were performed using either Cell Titer 96 Aqueous One Solution Cell Proliferation assay (Promega, # G3581) or CCK8 (Dojindo, # CK-04). […] IC50 values were determined from growth inhibition curves fitted using GraphPad Prism and a nonlinear regression model with sigmoidal dose response. Unless otherwise indicated, data are presented as mean ± SEM.

[1] = tested on: Ba/F3 cells FLT3 ITD/D835Y; assay: Growth inhibition of Ba/F3 cells; format: cell-based, murine; details: Mus musculus, BaF3
Experimental: as §2, §3

[2] = tested on: Ba/F3 cells FLT3 ITD/F691L; assay: Growth inhibition of Ba/F3 cells; format: cell-based, murine; details: Mus musculus, BaF3
Experimental: as §2, §3

Ba/F3 cells FLT3 ITD = assay: Growth inhibition of Ba/F3 cells; format: cell-based, murine; details: Mus musculus
Experimental: as §2, §3

Ba/F3 cells FLT3 WT = assay: Growth inhibition of Ba/F3 cells; format: cell-based, murine
Experimental: as §2, §3

MOLM-13 cells = assay: Growth inhibition of AML cell line; format: cell-based; details: Homo sapiens, mean ± SD
Experimental: as §2, §3

MOLM-14 cells (parental) = assay: Growth inhibition of AML cell line; format: cell-based, human; details: Homo sapiens, MOLM-14
Experimental: as §2, §3

[3] = tested on: AML cell lines expressing FLT3 ITD (MV-4-11, MOLM-13, and MOLM-14); assay: Growth inhibition of AML cell lines; format: cell-based; details: Homo sapiens; range over MV-4-11, MOLM-13, MOLM-14
Experimental: as §2, with “MV-4-11 (CRL-9591), HS-5 (CRL-3611), and KG1a (CCL-246.1) cells were obtained from ATCC. MOLM-13 (ACC 554) and MOLM-14 (ACC 777) were obtained from DSMZ (Deutsche Sammlung von Mikroorganismen und Zellkulturen). MOLM-14 cells contain one WT FLT3 allele and one FLT3-ITD allele. MOLM-14 FLT3-ITD/F691 cells were prepared by transfection of MOLM-14 cells with a vector expressing the FLT3 TKD F691L mutation. MV-4-11” for “MV-4-11”
as §3, with “Unless otherwise indicated, data are presented as mean ± SEM.” left out

TUS/R line 1 (MOLM-14) = assay: Growth inhibition of TUS-resistant subline; format: cell-based; details: Homo sapiens, MOLM-14, read-out: IC50 (nmol/L), Mean ± SEM, TUS/R line 1
TUS/R line 2 (MOLM-14) = assay: Growth inhibition of TUS-resistant subline; format: cell-based; details: Homo sapiens, MOLM-14, read-out: IC50 (nmol/L), Mean ± SEM, TUS/R line 2
TUS/R line 4 (MOLM-14) = assay: Growth inhibition of TUS-resistant subline; format: cell-based, human; details: Homo sapiens
TUS/R MOLM-14 cells = assay: Growth inhibition of TUS-resistant sublines versus parental; format: cell-based, human; details: Homo sapiens, MOLM-14; read-out: IC50, cells with acquired resistance
CYP2C8 = CYP2C8 (Homo sapiens, UniProt P10632); assay: CYP inhibition; format: in vitro ADME
CYP3A = assay: CYP inhibition; format: in vitro ADME; details: human
Plasma protein binding = format: in vitro ADME; details: mouse, rat, dog, and human plasma
[4] = Metabolism by liver microsomes; format: in vitro ADME, human
[5] = tested on: MCL1 in parental MOLM-14 cells; assay: Western blot of apoptotic proteins; details: 75 nmol/L TUS, 48-hour exposure

T5 sequence (O43318 1-303 limits assumed): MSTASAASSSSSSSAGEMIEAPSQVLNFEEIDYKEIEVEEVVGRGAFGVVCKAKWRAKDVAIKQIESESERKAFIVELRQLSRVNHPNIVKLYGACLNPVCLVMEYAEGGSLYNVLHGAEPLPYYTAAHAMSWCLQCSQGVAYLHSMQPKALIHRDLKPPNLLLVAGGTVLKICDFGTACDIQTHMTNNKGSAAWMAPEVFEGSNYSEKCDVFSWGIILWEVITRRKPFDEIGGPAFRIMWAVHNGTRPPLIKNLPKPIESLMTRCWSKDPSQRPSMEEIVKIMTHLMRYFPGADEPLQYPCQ
T5 sequence (Q15750 437-504 partner limits assumed): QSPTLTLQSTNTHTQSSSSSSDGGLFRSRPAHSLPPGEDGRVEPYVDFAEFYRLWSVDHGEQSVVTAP
CYP2C8, sequence (P10632 whole entry): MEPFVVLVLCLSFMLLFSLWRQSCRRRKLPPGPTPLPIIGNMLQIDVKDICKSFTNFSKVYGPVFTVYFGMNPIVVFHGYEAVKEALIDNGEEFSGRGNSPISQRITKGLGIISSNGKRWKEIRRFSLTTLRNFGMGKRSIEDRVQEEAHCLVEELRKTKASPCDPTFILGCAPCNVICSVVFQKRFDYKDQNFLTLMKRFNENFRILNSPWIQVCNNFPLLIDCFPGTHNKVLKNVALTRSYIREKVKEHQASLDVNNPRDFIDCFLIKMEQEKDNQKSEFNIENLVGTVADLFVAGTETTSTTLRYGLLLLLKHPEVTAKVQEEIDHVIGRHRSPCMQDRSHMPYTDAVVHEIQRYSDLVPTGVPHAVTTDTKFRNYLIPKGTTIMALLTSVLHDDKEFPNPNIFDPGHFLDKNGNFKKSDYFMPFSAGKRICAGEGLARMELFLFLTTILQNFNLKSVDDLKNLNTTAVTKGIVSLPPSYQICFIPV
T3 sequence (P51812 whole entry): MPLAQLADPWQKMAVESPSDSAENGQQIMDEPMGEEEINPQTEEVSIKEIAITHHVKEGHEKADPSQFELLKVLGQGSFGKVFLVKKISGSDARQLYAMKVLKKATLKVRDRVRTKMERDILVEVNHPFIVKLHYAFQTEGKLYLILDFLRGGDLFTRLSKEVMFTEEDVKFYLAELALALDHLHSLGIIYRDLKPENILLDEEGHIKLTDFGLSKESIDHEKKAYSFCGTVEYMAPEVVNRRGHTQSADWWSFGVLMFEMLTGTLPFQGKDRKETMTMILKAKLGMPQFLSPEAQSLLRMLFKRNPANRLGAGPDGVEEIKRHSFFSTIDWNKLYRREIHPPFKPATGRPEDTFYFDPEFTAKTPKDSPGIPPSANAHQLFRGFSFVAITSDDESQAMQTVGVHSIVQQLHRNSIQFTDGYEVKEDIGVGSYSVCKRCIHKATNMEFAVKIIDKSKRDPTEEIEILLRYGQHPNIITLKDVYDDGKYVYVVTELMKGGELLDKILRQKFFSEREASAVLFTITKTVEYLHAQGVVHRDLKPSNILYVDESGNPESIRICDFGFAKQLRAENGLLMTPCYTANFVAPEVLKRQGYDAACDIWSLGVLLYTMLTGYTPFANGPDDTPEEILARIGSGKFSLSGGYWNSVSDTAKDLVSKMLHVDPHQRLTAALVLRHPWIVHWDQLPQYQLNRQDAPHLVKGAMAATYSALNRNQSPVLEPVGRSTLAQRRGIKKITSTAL
T1 sequence (P23458 whole entry): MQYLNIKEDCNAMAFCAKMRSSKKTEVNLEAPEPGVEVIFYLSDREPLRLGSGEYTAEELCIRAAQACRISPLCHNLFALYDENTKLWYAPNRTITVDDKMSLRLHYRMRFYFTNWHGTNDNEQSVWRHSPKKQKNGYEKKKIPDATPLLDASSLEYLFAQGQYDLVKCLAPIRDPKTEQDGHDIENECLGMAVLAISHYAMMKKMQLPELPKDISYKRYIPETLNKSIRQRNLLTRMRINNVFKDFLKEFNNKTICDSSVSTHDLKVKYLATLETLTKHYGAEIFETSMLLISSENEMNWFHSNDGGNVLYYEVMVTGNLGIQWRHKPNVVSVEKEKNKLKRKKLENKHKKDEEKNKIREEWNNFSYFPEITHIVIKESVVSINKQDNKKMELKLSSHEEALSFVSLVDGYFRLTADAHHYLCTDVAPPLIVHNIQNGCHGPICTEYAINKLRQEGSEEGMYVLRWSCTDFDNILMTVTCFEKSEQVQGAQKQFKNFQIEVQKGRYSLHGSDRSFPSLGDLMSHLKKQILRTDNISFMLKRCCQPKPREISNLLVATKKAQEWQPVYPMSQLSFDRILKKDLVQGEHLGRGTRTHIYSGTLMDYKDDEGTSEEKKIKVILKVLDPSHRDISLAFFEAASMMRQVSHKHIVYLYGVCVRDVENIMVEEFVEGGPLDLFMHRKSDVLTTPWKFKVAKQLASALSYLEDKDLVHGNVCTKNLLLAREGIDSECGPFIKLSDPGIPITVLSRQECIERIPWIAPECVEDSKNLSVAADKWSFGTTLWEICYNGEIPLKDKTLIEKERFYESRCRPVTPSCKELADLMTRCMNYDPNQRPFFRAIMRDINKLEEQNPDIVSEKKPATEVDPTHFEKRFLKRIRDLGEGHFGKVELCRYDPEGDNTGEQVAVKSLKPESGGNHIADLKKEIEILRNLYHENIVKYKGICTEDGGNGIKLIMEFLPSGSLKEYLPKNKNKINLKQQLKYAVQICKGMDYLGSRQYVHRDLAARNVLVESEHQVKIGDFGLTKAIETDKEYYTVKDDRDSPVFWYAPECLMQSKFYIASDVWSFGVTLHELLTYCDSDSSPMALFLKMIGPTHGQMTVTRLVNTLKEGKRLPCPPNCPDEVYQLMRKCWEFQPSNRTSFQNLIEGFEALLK
T2 sequence (O60674 whole entry): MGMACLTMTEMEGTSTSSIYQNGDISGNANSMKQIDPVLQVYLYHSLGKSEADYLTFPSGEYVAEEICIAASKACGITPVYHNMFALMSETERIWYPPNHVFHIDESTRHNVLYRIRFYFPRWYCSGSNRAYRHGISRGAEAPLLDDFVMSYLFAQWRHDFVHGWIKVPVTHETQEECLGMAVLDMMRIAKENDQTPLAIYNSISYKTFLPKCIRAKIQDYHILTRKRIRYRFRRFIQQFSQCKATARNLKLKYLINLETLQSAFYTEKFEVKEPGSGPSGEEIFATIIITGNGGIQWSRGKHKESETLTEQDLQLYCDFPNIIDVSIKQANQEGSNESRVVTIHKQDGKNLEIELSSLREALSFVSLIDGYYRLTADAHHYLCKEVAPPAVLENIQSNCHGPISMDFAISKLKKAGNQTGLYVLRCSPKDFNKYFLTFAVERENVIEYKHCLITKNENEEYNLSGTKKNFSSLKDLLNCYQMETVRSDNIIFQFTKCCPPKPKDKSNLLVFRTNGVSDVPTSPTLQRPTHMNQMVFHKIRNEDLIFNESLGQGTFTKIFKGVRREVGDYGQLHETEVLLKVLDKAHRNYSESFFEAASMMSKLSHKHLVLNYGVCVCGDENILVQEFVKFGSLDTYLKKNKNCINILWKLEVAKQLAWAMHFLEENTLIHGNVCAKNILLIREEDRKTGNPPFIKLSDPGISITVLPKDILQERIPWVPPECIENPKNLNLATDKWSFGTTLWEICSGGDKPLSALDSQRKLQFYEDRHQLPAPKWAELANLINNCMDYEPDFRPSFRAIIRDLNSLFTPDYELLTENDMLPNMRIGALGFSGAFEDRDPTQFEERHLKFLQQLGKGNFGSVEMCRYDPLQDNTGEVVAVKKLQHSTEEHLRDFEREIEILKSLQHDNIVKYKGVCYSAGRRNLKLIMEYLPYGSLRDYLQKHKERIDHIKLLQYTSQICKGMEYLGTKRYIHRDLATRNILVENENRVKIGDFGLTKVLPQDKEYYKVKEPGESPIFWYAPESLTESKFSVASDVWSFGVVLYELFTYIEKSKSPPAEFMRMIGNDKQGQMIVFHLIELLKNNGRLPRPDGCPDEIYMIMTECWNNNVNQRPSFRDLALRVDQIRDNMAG

Question: For Cc1ccc2c(-c3nc(Nc4cc(CN5C[C@@H](C)N[C@@H](C)C5)cc(C5CC5)c4)ncc3Cl)c[nH]c2c1 [TUS, Tuspetinib], which IC50 (JAK1) is on record?
Answer: 2.9 nM

Question: What about the IC50 (JAK2) of the same compound?
Answer: 6.3 nM

Question: What about the IC50 (RSK-2) of the same compound?
Answer: 9.7 nM

Question: And the IC50 (SYK)?
Answer: 2.9 nM

Question: And the IC50 (TAK1)?
Answer: 7 nM

Question: What about the GI50 (Ba/F3 cells FLT3 D835Y; BaF3, Ba/F3 FLT3 D835Y) of the same compound?
Answer: < 9.1 nM

Question: What about the GI50 (Ba/F3 cells FLT3 D835Y; BaF3, Ba/F3 FLT3 D835Y, mean ± SD, read-out: GI50) of the same compound?
Answer: 7.3 ± 3.5 nM

Question: What about the GI50 [1] of the same compound?
Answer: 16 nM

Question: And the GI50 [2]?
Answer: 56 nM

Question: And the GI50 (Ba/F3 cells FLT3 ITD; BaF3, Ba/F3 FLT3 ITD)?
Answer: < 9.1 nM

Question: And the GI50 (Ba/F3 cells FLT3 ITD; BaF3, Ba/F3 FLT3 ITD, mean ± SD, read-out: GI50)?
Answer: 2.5 ± 0.4 nM

Question: What about the GI50 (Ba/F3 cells FLT3 WT; Ba/F3 FLT3 WT) of the same compound?
Answer: < 9.1 nM

Question: What about the GI50 (Ba/F3 cells FLT3 WT; Mus musculus, BaF3, Ba/F3 FLT3 WT, read-out: GI50) of the same compound?
Answer: 9.1 nM

Question: And the GI50 (MOLM-13 cells)?
Answer: 5.2 ± 0.9 nM

Question: What about the IC50 (MOLM-14 cells (parental); growth inhibition, three independent experiments, read-out: IC50 (nmol/L), Mean ± SEM, MOLM-14 parental) of the same compound?
Answer: 2.3 ± 0.6 nmol/L

Question: What about the GI50 (MOLM-14 cells (parental); mean ± SEM (Supplementary Table 6), read-out: GI50 (nM) Parental MOLM-14 (converted)) of the same compound?
Answer: 2.3 ± 0.6 nM

Question: What about the GI50 (MOLM-14 cells (parental); mean ± SD (Supplementary Table 4), read-out: GI50) of the same compound?
Answer: 2.9 ± 1.2 nM

Question: What about the GI50 [3] of the same compound?
Answer: 1.3 to 5.2 nM

Question: And the IC50 (TUS/R line 1 (MOLM-14))?
Answer: 183 ± 69.5 nmol/L

Question: What about the IC50 (TUS/R line 2 (MOLM-14)) of the same compound?
Answer: 120 ± 29.4 nmol/L

Question: What about the GI50 (TUS/R line 4 (MOLM-14); MOLM-14, read-out: GI50 (nM) TUS/R line 4, mean ± SEM (Supplementary Table 6)) of the same compound?
Answer: 144 ± 31 nM

Question: And the IC50 (TUS/R line 4 (MOLM-14); MOLM-14, read-out: IC50 (nmol/L), Mean ± SEM, TUS/R line 4)?
Answer: 144 ± 31.5 nmol/L

Question: And the IC50 (TUS/R MOLM-14 cells)?
Answer: 139 ± 38.6 nM

Question: What about the Ki (CYP2C8) of the same compound?
Answer: < 1000 nM

Question: And the Ki (CYP3A)?
Answer: < 1000 nM

Question: And the Plasma protein binding (Plasma protein binding)?
Answer: high

Question: And the “metabolism by human liver microsomes” value [4]?
Answer: metabolized by human liver microsomes

Question: And the “reduction of MCL1” value [5]?
Answer: 70%
